The record followed here is article PMC7531004, “Discovery of gramicidin A analogues with altered activities by multidimensional screening of a one-bead-one-compound library” (Nature Communications, 2020).

For data set [1] the following is noted: cell viability/%. The essentials:
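First, library peptide stocks are diluted 250-fold in RPMI1640 with 10% heat-inactivated FBS. Next, they are mixed with P388 cells to give 1 × 10^4 cells/mL and incubated 92 h at 37 °C, 5% CO2. Finally, viability (%) is scored by WST-1 absorbance at 415 nm.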

The nature of data set [2]: H+/Na+ transport assay of bead-derived peptides (one-point).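 Also: relative to parent gramicidin A activity set to 1.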 The data set is classed as biochemical. Further details: key: relative activity; mean of two control wells = 1.00. The note with it: bead-derived peptide solution, EYPC/EYPG LUVs. The essentials: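 Miniaturized 96-well format. LUVs with entrapped pyranine (1.0 mM) were exposed to peptide for 30 min at RT. Intensities were expressed relative to full lysis by Triton X-100 and no treatment, with control-well mean = 1.00.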

The subject of data set [3] is Streptococcus pyogenes SSI-9. In words: Antibacterial activity assay of bead-derived peptides (three concentrations). The data set is classed as cell-based. Further details: key: +++: inhibition by the 640-fold diluted peptide solution; ++: inhibition by the 160-fold diluted solution; +: inhibition by the 40-fold diluted solution; -: no inhibition. The following applies: S. pyogenes, bead-derived peptide solution, three concentrations. In outline:
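Bead-derived library peptide stocks in DMSO were tested undiluted and after 4- and 16-fold DMSO dilution against S. pyogenes SSI-9 (2 × 10^5 CFU/well) in cation-adjusted Mueller Hinton Broth with 5% laked horse blood. After 18 h at 37 °C, wells were scored for precipitation of grown cells.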

Where a SMILES comes first, the peptide text is derived from it. [ ]: non-standard residue; d: D form. The star is where a group is joined. NHCH2CH2OH = OCCN*; For = O=C*

The term viability denotes a read-out of living cells in per cent, often relative to untreated cells. In turn, `CNC(=O)C[C@@H](NC(=O)[C@H](C)NC(=O)[C@@H](CC(C)C)NC(=O)[C@H](C)NC(=O)CNC(=O)[C@@H](NC=O)C(C)C)C(=O)N[C@H](C(=O)N[C@@H](C(=O)N[C@@H](Cc1c[nH]c2ccccc12)C(=O)N[C@@H](C(=O)N[C@@H](Cc1c[nH]c2ccccc12)C(=O)N[C@H](CC(C)C)C(=O)N[C@@H](Cc1c[nH]c2ccccc12)C(=O)N[C@@H](C(=O)N[C@@H](Cc1c[nH]c2ccccc12)C(=O)NCCO)C(C)C)C(C)C)C(C)C)C(C)C` [compound 8583] (For-VGA[dL]A[dD](NHMe)V[dV]W[dV]W[dL]W[dV]W-NHCH2CH2OH) displayed a viability in data set [1] of 63.4%. Besides, the “H+/Na+ transport activity normalized against the value of 1 (1.00)” value (from here on “H+/Na+ transport activity normalized”) in data set [2] is reported as 1.15. For the same molecule, in data set [3], the antibacterial activity result is “-”.
In the same order, the values of `CC(C)C[C@@H](NC(=O)[C@H](C)NC(=O)CNC(=O)[C@@H](NC=O)C(C)C)C(=O)N[C@@H](C)C(=O)N[C@H](CC(C)C)C(=O)N[C@H](C(=O)N[C@@H](C(=O)N[C@@H](Cc1c[nH]c2ccccc12)C(=O)N[C@H](CC(C)C)C(=O)N[C@@H](Cc1c[nH]c2ccccc12)C(=O)N[C@@H](C(=O)N[C@@H](Cc1c[nH]c2ccccc12)C(=O)N[C@H](CC(C)C)C(=O)N[C@@H](Cc1c[nH]c2ccccc12)C(=O)NCCO)C(C)C)[C@H](C)O)C(C)C` [compound 8604] (For-VGA[dL]A[dL]V[dT]W[dL]W[dV]W[dL]W-NHCH2CH2OH) are 54.4%, 1.08 and “-”.
For `CC(C)C[C@@H](NC(=O)[C@H](C)NC(=O)CNC(=O)[C@@H](NC=O)C(C)C)C(=O)N[C@@H](C)C(=O)N[C@@H](C(=O)N[C@H](C(=O)N[C@@H](C(=O)N[C@@H](Cc1c[nH]c2ccccc12)C(=O)N[C@@H](C(=O)N[C@@H](Cc1c[nH]c2ccccc12)C(=O)N[C@H](CC(C)C)C(=O)N[C@@H](Cc1c[nH]c2ccccc12)C(=O)N[C@H](CC(C)C)C(=O)N[C@@H](Cc1c[nH]c2ccccc12)C(=O)NCCO)C(C)C)C(C)C)C(C)C)[C@H](C)O` [compound 8755] (For-VGA[dL]A[dT]V[dV]W[dV]W[dL]W[dL]W-NHCH2CH2OH) the same measures were 67.3%, 1.10 and “-”.
For `CC(C)C[C@@H](NC(=O)[C@H](Cc1c[nH]c2ccccc12)NC(=O)[C@@H](CC(C)C)NC(=O)[C@H](Cc1c[nH]c2ccccc12)NC(=O)[C@H](NC(=O)[C@H](Cc1c[nH]c2ccccc12)NC(=O)[C@@H](CC(C)C)NC(=O)[C@@H](NC(=O)[C@H](NC(=O)[C@H](C)NC(=O)[C@H](NC(=O)[C@H](C)NC(=O)CNC(=O)[C@@H](NC=O)C(C)C)[C@H](C)O)C(C)C)C(C)C)C(C)C)C(=O)N[C@@H](Cc1c[nH]c2ccccc12)C(=O)NCCO` [compound 8827] (For-VGA[dT]A[dV]V[dL]W[dV]W[dL]W[dL]W-NHCH2CH2OH) the same measures were 80.7%, 1.22 and “-”.
Regarding `CC(C)C[C@@H](NC(=O)[C@H](Cc1c[nH]c2ccccc12)NC(=O)[C@H](NC(=O)[C@@H](NC(=O)[C@H](NC(=O)[C@H](C)NC(=O)[C@H](NC(=O)[C@H](C)NC(=O)CNC(=O)[C@@H](NC=O)C(C)C)C(C)C)[C@H](C)O)C(C)C)C(C)C)C(=O)N[C@@H](Cc1c[nH]c2ccccc12)C(=O)N[C@@H](C(=O)N[C@@H](Cc1c[nH]c2ccccc12)C(=O)N[C@@H](C(=O)N[C@@H](Cc1c[nH]c2ccccc12)C(=O)NCCO)C(C)C)C(C)C` [compound 9055] (For-VGA[dV]A[dT]V[dV]W[dL]W[dV]W[dV]W-NHCH2CH2OH), the viability in data set [1] turned out to be 83.5%. Further, in data set [2], the “H+/Na+ transport activity normalized” value stood at 1.01. Further, the antibacterial activity result in data set [3] is “-”.
For `CC(C)C[C@@H](NC(=O)[C@H](C)NC(=O)CNC(=O)[C@@H](NC=O)C(C)C)C(=O)N[C@@H](C)C(=O)N[C@@H](C(=O)N[C@H](C(=O)N[C@@H](C(=O)N[C@@H](Cc1c[nH]c2ccccc12)C(=O)N[C@H](CC(C)C)C(=O)N[C@@H](Cc1c[nH]c2ccccc12)C(=O)N[C@H](CC(C)C)C(=O)N[C@@H](Cc1c[nH]c2ccccc12)C(=O)N[C@H](CC(C)C)C(=O)N[C@@H](Cc1c[nH]c2ccccc12)C(=O)NCCO)C(C)C)C(C)C)[C@H](C)O` [compound 9098] (For-VGA[dL]A[dT]V[dV]W[dL]W[dL]W[dL]W-NHCH2CH2OH) the same measures were 51%, 1.13 and “-”.
For `CC(C)C[C@@H](NC(=O)[C@H](C)NC(=O)[C@H](NC(=O)[C@H](C)NC(=O)CNC(=O)[C@@H](NC=O)C(C)C)C(C)C)C(=O)N[C@H](C(=O)N[C@@H](C(=O)N[C@@H](Cc1c[nH]c2ccccc12)C(=O)N[C@H](CC(C)C)C(=O)N[C@@H](Cc1c[nH]c2ccccc12)C(=O)N[C@@H](C(=O)N[C@@H](Cc1c[nH]c2ccccc12)C(=O)N[C@H](CC(C)C)C(=O)N[C@@H](Cc1c[nH]c2ccccc12)C(=O)NCCO)[C@H](C)O)C(C)C)C(C)C` [compound 9177] (For-VGA[dV]A[dL]V[dV]W[dL]W[dT]W[dL]W-NHCH2CH2OH) the same measures were 61.7%, 1.05 and “-”.
For `CC(C)C[C@@H](NC(=O)[C@H](C)NC(=O)[C@H](NC(=O)[C@H](C)NC(=O)CNC(=O)[C@@H](NC=O)C(C)C)C(C)C)C(=O)N[C@H](C(=O)N[C@H](CC(C)C)C(=O)N[C@@H](Cc1c[nH]c2ccccc12)C(=O)N[C@H](CC(C)C)C(=O)N[C@@H](Cc1c[nH]c2ccccc12)C(=O)N[C@@H](C(=O)N[C@@H](Cc1c[nH]c2ccccc12)C(=O)N[C@@H](C(=O)N[C@@H](Cc1c[nH]c2ccccc12)C(=O)NCCO)C(C)C)C(C)C)C(C)C` [compound 9247] (For-VGA[dV]A[dL]V[dL]W[dL]W[dV]W[dV]W-NHCH2CH2OH) the same measures were 6%, 1.02 and “+”.
In data set [1], `CC(C)C[C@@H](NC(=O)[C@H](C)NC(=O)CNC(=O)[C@@H](NC=O)C(C)C)C(=O)N[C@@H](C)C(=O)N[C@H](CC(C)C)C(=O)N[C@H](C(=O)N[C@@H](C(=O)N[C@@H](Cc1c[nH]c2ccccc12)C(=O)N[C@@H](C(=O)N[C@@H](Cc1c[nH]c2ccccc12)C(=O)N[C@H](CC(C)C)C(=O)N[C@@H](Cc1c[nH]c2ccccc12)C(=O)N[C@@H](C(=O)N[C@@H](Cc1c[nH]c2ccccc12)C(=O)NCCO)[C@H](C)O)C(C)C)C(C)C)C(C)C` [compound 9823] (For-VGA[dL]A[dL]V[dV]W[dV]W[dL]W[dT]W-NHCH2CH2OH) showed a viability of 100%. Besides, the “H+/Na+ transport activity normalized” value in data set [2] was determined as 1.08. In addition, in data set [3], the antibacterial activity result was “-”.
For the molecule `CNC(=O)C[C@@H](NC(=O)[C@H](Cc1c[nH]c2ccccc12)NC(=O)[C@H](NC(=O)[C@H](Cc1c[nH]c2ccccc12)NC(=O)[C@H](NC(=O)[C@H](Cc1c[nH]c2ccccc12)NC(=O)[C@H](NC(=O)[C@@H](NC(=O)[C@@H](CC(C)C)NC(=O)[C@H](C)NC(=O)[C@@H](CC(C)C)NC(=O)[C@H](C)NC(=O)CNC(=O)[C@@H](NC=O)C(C)C)C(C)C)C(C)C)C(C)C)C(C)C)C(=O)N[C@@H](Cc1c[nH]c2ccccc12)C(=O)NCCO` [compound 10002] (For-VGA[dL]A[dL]V[dV]W[dV]W[dV]W[dD](NHMe)W-NHCH2CH2OH), the viability in data set [1] was 100%. The “H+/Na+ transport activity normalized” value in data set [2] was determined as 1.01. Further, the antibacterial activity entry in data set [3] is “-”.
In the same order, the values of `CC(C)C[C@@H](NC(=O)[C@H](Cc1c[nH]c2ccccc12)NC(=O)[C@@H](CC(C)C)NC(=O)[C@H](Cc1c[nH]c2ccccc12)NC(=O)[C@H](NC(=O)[C@H](Cc1c[nH]c2ccccc12)NC(=O)[C@H](NC(=O)[C@@H](NC(=O)[C@H](NC(=O)[C@H](C)NC(=O)[C@H](NC(=O)[C@H](C)NC(=O)CNC(=O)[C@@H](NC=O)C(C)C)C(C)C)C(C)C)C(C)C)C(C)C)[C@H](C)O)C(=O)N[C@@H](Cc1c[nH]c2ccccc12)C(=O)NCCO` [compound 10042] (For-VGA[dV]A[dV]V[dV]W[dT]W[dL]W[dL]W-NHCH2CH2OH) are 100%, 1.06 and “-”.
For `CC(C)C[C@@H](NC(=O)[C@H](C)NC(=O)[C@H](NC(=O)[C@H](C)NC(=O)CNC(=O)[C@@H](NC=O)C(C)C)[C@H](C)O)C(=O)N[C@H](C(=O)N[C@@H](C(=O)N[C@@H](Cc1c[nH]c2ccccc12)C(=O)N[C@H](CC(C)C)C(=O)N[C@@H](Cc1c[nH]c2ccccc12)C(=O)N[C@@H](C(=O)N[C@@H](Cc1c[nH]c2ccccc12)C(=O)N[C@H](CC(C)C)C(=O)N[C@@H](Cc1c[nH]c2ccccc12)C(=O)NCCO)C(C)C)C(C)C)C(C)C` [compound 10313] (For-VGA[dT]A[dL]V[dV]W[dL]W[dV]W[dL]W-NHCH2CH2OH) the same measures were 100%, 1.11 and “-”.
